Test results published in patent publication US9751861B2, “N1-(3,3,3-trifluoro-2-hydroxo-2-methylpropionyl)-piperidine derivatives as inhibitors of pyruvate dehydrogenase kinase” (MERCK PATENT GMBH, priority 2013, dated 2017).

How the values were obtained:
PDHK2 = target: T1, PDHK2 (Homo sapiens, UniProt Q15119); test: Biochemical activity testing of PDHK2: PDC inactivation assay; details: human rec PDHK2, PDC from porcine heart, ATP 5 μM; read-out: IC50 PDHK2 (enzyme assay)
T1 construct: purchased Carna Bioscience
Excerpt: Biochemical Activity Testing of PDHK2: PDC Inactivation Assay
The biochemical activity assay for PDHK2 is based on the inactivation of PDC through phosphorylation by PDHK2. The assay is run in two steps: the enzymatic PDHK2 reaction in which isolated PDC is phosphorylated by PDHK2 with ATP as co-substrate and the PDC activity assay in which pyruvate and NAD are converted to acetyl-CoA and NADH. The PDC activity correlates to the increase in NADH and thereby is detectable directly via the increasing fluorescence signal (Exc 340 nm, Em 450 nm). Inhibition of PDHK2 results in a lower phosphorylation status and thereby a less decrease in activity of PDC and a stronger increase in NADH fluorescence signal.
The PDC inactivation assay is performed in Greiner 384-well microtiter plates and is used for high throughput screen. 4 μl of PDHK2 (human, rec, Carna Bioscience, 10 ng/μl-137 nM final concentration) and PDC (isolated from porcine heart, Sigma-Aldrich, 20 mU/ml final concentration) are incubated in the absence or presence of the test compound (10 dilution concentrations) for 30 min at room temperature in kinase buffer (15 mM potassium phosphate buffer, pH 7.0, 60 mM KCl, 1.5 mM DTT, 2.5 mM MgCl2, 0.0125% (w/v) BSA, 0.125% Pluronic F-68). The kinase reaction is started by the addition of 4 μl ATP substrate solution (fc 5 μM in kinase buffer). After 30 min incubation at 37° C. 40 μl of PDC reaction solution (100 mM Tris/HCl, pH 7.8, 0.5 mM EDTA, 1 mM MgCl2, 50 mM NaF, 0.25 mM Coenzyme A, 5 mM pyruvate, 1 mM NAD, 5 mM DTT, […] thiamine pyrophosphate) is added. The first fluorescence measurement is performed on a Perkin Elmer Envision (Exc 340 nm, Em 450 nm). The reaction is incubated for 45 min at room temperature. Afterwards a second fluorescence measurement is performed and the PDC activity is calculated by the difference between both measurements. As full value for the PDHK2 assay the inhibitor-free PDHK2 reaction is used. The pharmacological zero value used is DCA (Sigma-Aldrich) in a final concentration of 3 mM. The inhibitory values (IC50) were determined using either the program Symyx Assay Explorer® or Condosseo® from GeneData.

human PDHK2 (12-407) = target: T2, human PDHK2 (12-407) (Homo sapiens, UniProt Q15119); test: Isothermal titration calorimetry (ITC) binding; details: 30° C., pH 7.5
T2 construct: The human PDHK2 (12-407) was produced in E. coli; His-tag (cleaved yes); made in house; host or cells: E. coli
Protocol: Isothermal Titration Calorimetry
ITC measurements were performed with a VP-ITC micro calorimeter (Microcal, LLC/GE Healthcare Bio-Sciences AB, Uppsala, Sweden). In general titrations were performed by titrating the protein (50 μM) to the test compound (5 μM) in 12 μl injections. All binding experiments were carried out at 30° C. In general the test compounds were diluted form DMSO stock solutions into the measurement buffer with a maximum final concentration of 1% DMSO. The measurement buffer was 20 mM HEPES, 135 mM KCl, 1 mM TCEP, 2 mM MgCl2, 15 mM NaH2PO4, pH 7.5. The human PDHK2 (12-407) was produced in E. coli as his-tagged protein and purified by affinity chromatography. The tag was removed by side specific proteolysis. Before titration the protein buffer was changed to the measurement buffer containing the same DMSO concentration as the test compound dilution. ITC data analysis was performed using Origin 7 calorimetry software from the same supplier. For most measurements a binding model of one binding site was assumed. According to the applied mathematical model it is possible to calculate the binding constant (KA), the observed binding enthalpy (ΔH^obs) as well as the stoichiometry (N) of the formed complex. Preceding analysis the raw data was corrected for the heats of dilution by extrapolating from the saturation value from the end of titration. In order to allow for direct comparison between the respective experimental series and protein preparations the protein concentration was corrected by referencing titrations to a well behaved standard inhibitor. The apparent stoichiometry values defined the fraction of binding competent protein and compensated for relative errors in protein concentration measurements. This corrected protein concentration was used to set up ITC experiment series with test compounds. Any deviations from ideal 1:1 stoichiometry observed here were attributed to errors in compound concentration. This nominal compound concentration was corrected as well to achieve 1:1 stoichiometry in the fit.

PDH-Elalpha (pSer300) = test: Cellular immunofluorescence assay in HEK293T cells; format: cell-based; details: Homo sapiens, HEK-293T, 5 hours incubation, anti-PDH-E1alpha pSer300 immunofluorescence, read-out: IC50 (cell data)
Protocol: Cellular Assay for Determination of Compound Activities
Compound activities were determined in a cellular immunofluorescence assay. Human HEK293T cells were seeded into black 384-well plates with clear bottom and grown overnight.
Next day, test compounds were added to the wells and the plates incubated for 5 hours. Following this, cells were fixed with formaldehyde, permeabilised and blocked. The primary antibody, Anti-PDH-Elalpha (pSer300), AP1064 (Merck Millipore) was added and incubated overnight in the plate wells. Next, cells were washed and the seconday antibody, Alexa Fluor 488, goat anti-rabbit ab (A-11008, Invitrogen) was added together with Hoechst 33258 (H3569, Invitrogen) and incubated for 1 hour in the plate wells. Finally, cells were washed and the plates were measured on the laser scanning cytometer acumen hci (TTpLabtech).
The raw data were normalized against a pharmacological inhibitor control and dose response curves were generated by plotting the percent effect values using the software package Genedata screener (Genedata).

Row | Structure (SMILES) | IC50 (PDHK2) [nM] | Kd (human PDHK2 (12-407)) [nM] | IC50 (PDH-Elalpha (pSer300)) [nM]
1 | C[C@@](O)(C(=O)N1CCC(c2ccnn2-c2ccccc2F)CC1)C(F)(F)F [Compound A4, (R)-3,3,3-Trifluoro-1-{4-[2-(2-fluoro-phenyl)-2H-pyrazol-3-yl]-piperidin-1-yl}-2-hydroxy-2-methyl-propan-1-one] | < 300 | < 300 | 300 to 3000
2 | Cc1ccccc1-n1nccc1C1CCN(C(=O)[C@@](C)(O)C(F)(F)F)CC1 [Compound A5, (R)-3,3,3-Trifluoro-2-hydroxy-2-methyl-1-[4-(2-o-tolyl-2H-pyrazol-3-yl)-piperidin-1-yl]-propan-1-one] | 300 to 3000 | < 300 | 300 to 3000
3 | Cc1cccc(-n2nccc2C2CCN(C(=O)[C@@](C)(O)C(F)(F)F)CC2)c1 [Compound A6, (R)-3,3,3-Trifluoro-2-hydroxy-2-methyl-1-[4-(2-m-tolyl-2H-pyrazol-3-yl)-piperidin-1-yl]-propan-1-one] | 300 to 3000 | < 300 | 300 to 3000
4 | C[C@@](O)(C(=O)N1CCC(c2ccnn2-c2cccc(C#N)c2)CC1)C(F)(F)F [Compound A8, 3-{5-[1-((R)-3,3,3-Trifluoro-2-hydroxy-2-methyl-propionyl)-piperidin-4-yl]-pyrazol-1-yl}-benzonitrile] | 300 to 3000 | < 300 | 300 to 3000
5 | C[C@@](O)(C(=O)N1CCC(c2ccnn2-c2ccc(C#N)cc2)CC1)C(F)(F)F [Compound A9, 4-{5-[1-((R)-3,3,3-Trifluoro-2-hydroxy-2-methyl-propionyl)-piperidin-4-yl]-pyrazol-1-yl}-benzonitrile] | 300 to 3000 | < 300 | 300 to 3000
6 | C[C@@](O)(C(=O)N1CCC(c2ccnn2-c2cccc(F)c2)CC1)C(F)(F)F [Compound A10, (R)-3,3,3-Trifluoro-1-{4-[2-(3-fluoro-phenyl)-2H-pyrazol-3-yl]-piperidin-1-yl}-2-hydroxy-2-methyl-propan-1-one] | < 300 | < 300 | 300 to 3000
7 | C[C@@](O)(C(=O)N1CCC(c2ccnn2-c2ccccc2Cl)CC1)C(F)(F)F [Compound A11, (R)-1-{4-[2-(2-Chloro-phenyl)-2H-pyrazol-3-yl]-piperidin-1-yl}-3,3,3-trifluoro-2-hydroxy-2-methyl-propan-1-one] | < 300 | < 300 | 300 to 3000
8 | C[C@@](O)(C(=O)N1CCC(c2ccnn2-c2cccc(Cl)c2)CC1)C(F)(F)F [Compound A12, (R)-1-{4-[2-(3-Chloro-phenyl)-2H-pyrazol-3-yl]-piperidin-1-yl}-3,3,3-trifluoro-2-hydroxy-2-methyl-propan-1-one] | 300 to 3000 | < 300 | 3000 to 50000
9 | C[C@@](O)(C(=O)N1CCC(c2ccnn2-c2ccc(Cl)cc2)CC1)C(F)(F)F [Compound A13, (R)-1-{4-[2-(4-Chloro-phenyl)-2H-pyrazol-3-yl]-piperidin-1-yl}-3,3,3-trifluoro-2-hydroxy-2-methyl-propan-1-one] | < 300 | < 300 | 300 to 3000
10 | C[C@@](O)(C(=O)N1CCC(c2ccnn2-c2ccc(F)cc2)CC1)C(F)(F)F [Compound A14, (R)-3,3,3-Trifluoro-1-{4-[2-(4-fluoro-phenyl)-2H-pyrazol-3-yl]-piperidin-1-yl}-2-hydroxy-2-methyl-propan-1-one] | < 300 | < 300 | 300 to 3000
11 | C[C@@](O)(C(=O)N1CCC(c2ccnn2-c2cccc(Cl)c2F)CC1)C(F)(F)F [Compound A15, (R)-1-{4-[2-(3-Chloro-2-fluoro-phenyl)-2H-pyrazol-3-yl]-piperidin-1-yl}-3,3,3-trifluoro-2-hydroxy-2-methyl-propan-1-one] | < 300 | < 300 | < 300
12 | Cc1ccc(-n2nccc2C2CCN(C(=O)[C@@](C)(O)C(F)(F)F)CC2)c(F)c1 [Compound A16, (R)-3,3,3-Trifluoro-1-{4-[2-(2-fluoro-4-methyl-phenyl)-2H-pyrazol-3-yl]-piperidin-1-yl}-2-hydroxy-2-methyl-propan-1-one] | < 300 | < 300 | 300 to 3000
13 | CC(C)(C)n1nccc1C1CCN(C(=O)[C@@](C)(O)C(F)(F)F)CC1 [Compound A17, (R)-1-[4-(2-tert-Butyl-2H-pyrazol-3-yl)-piperidin-1-yl]-3,3,3-trifluoro-2-hydroxy-2-methyl-propan-1-one] | 300 to 3000 | < 300 | 300 to 3000
14 | C[C@@](O)(C(=O)N1CCC(c2ccnn2-c2ccc(C(F)(F)F)cc2Cl)CC1)C(F)(F)F [Compound A18, (R)-1-{4-[2-(2-Chloro-4-trifluoromethyl-phenyl)-2H-pyrazol-3-yl]-piperidin-1-yl}-3,3,3-trifluoro-2-hydroxy-2-methyl-propan-1-one] | < 300 | < 300 | 300 to 3000
15 | C[C@@](O)(C(=O)N1CCC(c2ccnn2-c2ncc(Br)cn2)CC1)C(F)(F)F [Compound A19, (R)-1-{4-[2-(5-Bromo-pyrimidin-2-yl)-2H-pyrazol-3-yl]-piperidin-1-yl}-3,3,3-trifluoro-2-hydroxy-2-methyl-propan-1-one] | 300 to 3000 | < 300 | 300 to 3000
16 | CC(C)(O)c1ccc(-n2nccc2C2CCN(C(=O)[C@@](C)(O)C(F)(F)F)CC2)cc1 [Compound A20, (R)-3,3,3-Trifluoro-2-hydroxy-1-(4-{2-[4-(1-hydroxy-1-methyl-ethyl)-phenyl]-2H-pyrazol-3-yl}-piperidin-1-yl)-2-methyl-propan-1-one] | < 300 | < 300 | 300 to 3000
17 | CC(C)(C)c1ccc(-n2nccc2C2CCN(C(=O)[C@@](C)(O)C(F)(F)F)CC2)cc1 [Compound A21, (R)-1-{4-[2-(4-tert-Butyl-phenyl)-2H-pyrazol-3-yl]-piperidin-1-yl}-3,3,3-trifluoro-2-hydroxy-2-methyl-propan-1-one] | 300 to 3000 | < 300 | 300 to 3000
18 | CC(C)c1ccc(-n2nccc2C2CCN(C(=O)[C@@](C)(O)C(F)(F)F)CC2)cc1 [Compound A22, (R)-3,3,3-Trifluoro-2-hydroxy-1-{4-[2-(4-isopropyl-phenyl)-2H-pyrazol-3-yl]-piperidin-1-yl}-2-methyl-propan-1-one] | 300 to 3000 | < 300 | 300 to 3000
